Source: paper PMC7066135, “The lipoprotein Pal stabilises the bacterial outer membrane during constriction by a mobilisation-and-capture mechanism” (Nature Communications, 2020)
Ends that are not written are not given here. Peptide text beside a SMILES is read from it. * marks the point of attachment. FITC = O=C1OC2(c3ccc(O)cc3Oc3cc(O)ccc32)c2ccc(NC(=S)*)cc21

Assays:
[1] = system: TolA-GFP at the divisome; assay: 3D-SIM of TolA-GFP recruitment to the divisome; type: cell-based, E. coli; settings: TolB I25A, I27A background versus wild-type TolB, expressed from plasmid; n = 30; Mann-Whitney U and t test
Source text: Live bacteria were mounted between an agarose pad and a coverslip. Imaging was processed at room temperature with a ×60, NA 1.42 oil objective on a Deltavision OMX V3 Blaze (GE) equipped with a 488 laser. Image stacks of several μm thickness were taken with 0.125 μm z-steps and 15 images (three angles and five phases per angle) per z-section and a 3D-structured illumination with stripe separation of 213 nm. Laser power was set at 10% to scan the sample over 4 µm thickness (32 slices) without too much photobleaching. Image stacks were reconstructed using Deltavision softWoRx 6.1.1 software with a Wiener filter of 0.002 using wavelength-specific experimentally determined OTF functions (see ref. [37]). […] Distribution of fluorescence intensity along the x-axis of bacteria was determined using a custom script implemented in MATLAB (version 2012a, MathWorks) (see ref. [40]). […] Intensity along the selected bacteria was measured 11 times between the bacterial end-points, each at a uniformly spaced offset from the bacterial long axis. The mean profile was calculated and normalized to the range 0–100 for comparison between bacteria. Diameter measurements correspond to the height of ring, calculated automatically through ImageJ software from each reconstructed and filtered image. A total of 30 cells were analysed per condition, in triplicate. […]

[2] = system: Pal-mCherry in E. coli cells; assay: Fluorescence recovery after photobleaching (FRAP) of Pal-mCherry; type: cell-based; settings: non-dividing cells, average from 30 cells
Method: Overnight supplemented M9-glucose (2 mM MgSO4, 0.1 mM CaCl2, 0.4% (w/v) D-glucose) cultures were diluted in fresh medium with appropriate antibiotics and IPTG for strains expressing TolA from plasmids. Cultures were grown at 37 °C to OD600 0.3. Cells were centrifuged at 7000 × g for 1 min, resuspended in 1 ml of fresh media and treated with CCCP (0.1 mM, RT for 5 min, Sigma #C2759) for PMF decoupling, sodium azide (50 µg ml^−1, RT for 30 min, Sigma #S2002) for ATPase inhibition or chloramphenicol (30 µg ml^−1, 37 °C for 30 min, Sigma #C0378) for translation inhibition. […]
Microscopy was performed on a Zeiss LSM 880/Axio Examiner Z1 motorised upright laser scanning microscope equipped with Argon multiline 458/488/514 nm (25 mW), and HeNe 561 nm (1 mW) and ×63 oil-immersion objective (Zeiss, NA 1.4) set to 37 °C. […] Two images were acquired before bleaching and ten images, with a time interval of 1 min, recorded after bleaching using an automatic time-course function. […] For all fluorescent images, corresponding differential interference contrast (DIC) images were recorded using transmitted light. All images were recorded using Zeiss Zen 2011 software.
All images were analysed using ImageJ software. Fluorescence distribution along x-axis of cells was determined by the plot profile function with a line width of 4 points for TIRFM images and 40 or 80 for FRAP images. […]

[3] = target: T1, TolA with its C-terminal α-helix removed (Pseudomonas aeruginosa, UniProt P50600); assay: Stopped-flow fluorescence anisotropy, helix-truncated TolA; type: binding, P. aeruginosa
T1 construct: Open symbols, TolA224-344 lacking its short; His-tagged Im9 (fusion partner, factor Xa site) (N); made in house; host or cells: E. coli BL21 (DE3)
Method: (§1) Experiments were conducted on an Applied Photophysics SX20 instrument set up for 1:1 single mixing and thermostated using a circulating water bath at 25 °C. All stopped-flow experiments were carried out in 50 mM Tris pH 7.0, 100 mM NaCl and under pseudo-first-order conditions. […] Monochromator entrance and exit slits were set to 2 mm. A total of 4000–10,000 data points were collected for each reaction. At least four anisotropy traces were collected for each reaction and averaged for each time-dependence fit. All anisotropy traces were fit to a single exponential rate equation. Each reaction concentration was collected in triplicate and validated using recombinant protein from different protein purifications. SigmaPlot was used for linear regression analysis to fit the dependence of kobs on the varied concentration of TolA. Titrations were performed at increasing concentration of protein relative to a constant concentration of peptide at 1 μM. Experiments were typically performed with 4–10-s data collection periods.
(§2) of mutations in vitro and in vivo. All in vitro measurements used the P. aeruginosa complex while all in vivo assays
(§3) binding a 100-fold excess of the C-terminal domain of wild-type TolA (red) and TolA with its C-terminal α-helix removed
(§4) tion yielding an observed rate (kobs). […]

[4] = target: T2, TolA224-344 lacking its short C-terminal α-helix (Pseudomonas aeruginosa, UniProt P50600); assay: Fluorescence anisotropy titration, FITC-labelled TolB peptide, helix-truncated TolA; type: binding, P. aeruginosa; settings: versus wild-type TolA224-347
T2 construct: Open symbols, TolA224-344 lacking its short; His-tagged Im9 (fusion partner, factor Xa site) (N); made in house; host or cells: E. coli BL21 (DE3)
Method: Fluorescence anisotropy experiments were used to observe the change in overall anisotropy of P. aeruginosa TolB^22–34 fluorescein isothiocyanate (FITC) in complex with the C-terminal domain of TolA. A titration curve was recorded using 40 μl fractions in a 96-well, black absorbent, 100 μl plate, n = 3.
Experiments were carried out using either a CLARIOstar plate reader or a Fluoromax- 4 spectrofluorimeter (Horiba JobinYvon). Titrations were carried out between 0 and 1.2 mM TolA. […] FITC excitation wavelength used was 495 nm with an emission wavelength at 519 nm. All experiments were conducted in 50 mM Tris 100 mM NaCl pH 7.0 and used light-blocking tubes to minimize quenching.
(§5) Data were fitted using the manufac-turer ’s software assuming a 1:1 binding model, validated by the resulting structure for the complex. From three independent measurements, average values for ΔH […] (±0.24 standard deviation (SD)) kcal.mol-1, ΔS +11.8 (±2.14 SD) cal.K-1 […]
(§6) form of an isolated peptide. b, Binding of TolB22-34 to the C-terminal domain of 15N-labelled TolA224-347 from P. aeruginosa followed by changes in 1H, 15N-HSQC spectra, >80% of all TolA peaks were perturbed by TolB22-33 binding. Every peak was […]
(§7) and free (32%) TolA. […]
(§8) five-fold weaker binding than the E. coli complex. c, Fluorescence anisotropy binding curves for P. aeruginosa TolB22-33 binding the C-terminal domain of TolA. […]

[5] = target: T3, C-terminal domain of wild-type TolA (Pseudomonas aeruginosa, UniProt P50600); assay: Stopped-flow fluorescence anisotropy, wild-type TolA; type: binding, P. aeruginosa
T3 construct: The C-terminal domain of Pseudomonas aeruginosa TolA (TolA^224–347) and its derivatives; His-tagged Im9 (fusion partner, factor Xa site) (N, cleaved yes); made in house; host or cells: E. coli BL21 (DE3)
Method: as §1, §2, §3, §4

[6] = target: P. aeruginosa TolB^22–34 fluorescein isothiocyanate (FITC) (P. aeruginosa) (UniProt P50601); assay: FP
[7] = target: E. coli TolB22-33 peptide; assay: ITC
[8] = target: T4, TolA224-347 (Pseudomonas aeruginosa, UniProt P50600); assay: NMR titration (1H,15N-HSQC), TolB peptide binding 15N-labelled TolA; set-up: species or system P. aeruginosa; settings: 1H,15N-HSQC spectra; slow chemical exchange
T4 construct: The C-terminal domain of Pseudomonas aeruginosa TolA (TolA^224–347) and its derivatives; His-tagged Im9 (fusion partner, factor Xa site) (N, cleaved yes); made in house; host or cells: E. coli BL21 (DE3)
Method: NMR experiments were carried out using spectrometers operating at ^1H frequencies ranging from 500 to 950 MHz. The spectrometers were equipped with Oxford Instruments magnets and home-built triple-resonance pulsed-field gradient probes (600, 750 and 950 MHz) or with Bruker Avance consoles and TCI CryoProbes (500 and 600 MHz). NMR data were acquired using either GE/Omega software using pulse sequences written in-house, or Topspin software and pulse sequences in the Topspin libraries from Bruker Biospin. All data processing was conducted using NMRPipe[49]. Processed spectra were visualized and assigned using the CCPN software suite. All NMR data were collected at 20 °C.
as §5, §6, §7, §8

[9] = target: Pal (Escherichia coli) (UniProt P0A912); settings: cited from earlier work
[10] = target: TolA (Escherichia coli) (UniProt P19934); settings: cited from earlier work
[11] = target: T5, C-terminal domain of Pseudomonas aeruginosa TolA (TolA^224–347) (Pseudomonas aeruginosa, UniProt P50600 224-347); assay: NMR
T5 chain: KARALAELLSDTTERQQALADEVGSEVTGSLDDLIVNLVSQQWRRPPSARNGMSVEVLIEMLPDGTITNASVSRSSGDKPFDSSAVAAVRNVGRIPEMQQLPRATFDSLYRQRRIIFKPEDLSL

[12] = target: T5, C-terminal domain of Pseudomonas …; assay: FP

Sequence of TolA (Escherichia coli) (P19934 whole entry, the tested form may be a part): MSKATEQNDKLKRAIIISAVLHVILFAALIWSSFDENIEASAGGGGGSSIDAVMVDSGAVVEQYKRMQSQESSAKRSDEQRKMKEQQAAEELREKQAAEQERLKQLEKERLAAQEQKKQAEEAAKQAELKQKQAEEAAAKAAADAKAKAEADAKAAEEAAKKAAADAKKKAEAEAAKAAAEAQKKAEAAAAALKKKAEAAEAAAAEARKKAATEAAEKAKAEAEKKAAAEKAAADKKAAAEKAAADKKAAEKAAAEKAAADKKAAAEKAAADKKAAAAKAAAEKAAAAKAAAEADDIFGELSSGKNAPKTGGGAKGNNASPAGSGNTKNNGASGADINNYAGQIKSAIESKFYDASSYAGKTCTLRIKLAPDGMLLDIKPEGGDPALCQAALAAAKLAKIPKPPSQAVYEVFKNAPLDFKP
Sequence of Pal (Escherichia coli) (P0A912 22-173): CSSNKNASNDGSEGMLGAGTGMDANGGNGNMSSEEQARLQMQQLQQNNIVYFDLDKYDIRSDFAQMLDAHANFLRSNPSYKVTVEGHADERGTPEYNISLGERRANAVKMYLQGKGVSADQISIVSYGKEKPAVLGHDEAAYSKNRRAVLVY

## TolB I25A, I27A
[1]
  divisome recruitment of TolA-GFP (intensity distribution, ring diameter): no significant difference

## [N-]=[N+]=[N-].[Na+] [sodium azide]
[2]; sodium azide 50 µg/µl
  effect on FRAP recovery: measurable effect

## CC[C@H](C)[C@H](NC(=O)[C@@H](NC(=O)[C@H](CC(C)C)NC(=O)[C@@H]1CCCN1C(=O)[C@H](CC(=O)O)NC(=O)[C@H](C)N)C(C)C)C(=O)N[C@@H](CO)C(=O)N[C@@H](CO)C(=O)NCC(=O)N[C@@H](CC(N)=O)C(=O)N[C@@H](CC(=O)O)C(=O)N[C@@H](CCCNC(=N)N)C(=O)N[C@@H](CCCCNC(=S)Nc1ccc2c(c1)C(=O)OC21c2ccc(O)cc2Oc2cc(O)ccc21)C(N)=O [P. aeruginosa TolB22-33] (H-ADPLVISSGNDRK(FITC)-NH2; N-terminus and C-terminus assumed)
[3]
  koff: 1.4 s⁻¹
[3]; helix truncation versus wild-type TolA
  kon relative to wild-type complex: three-fold faster
[4]
  improvement of TolB binding on deletion of the TolA helix: three-fold
[5]
  koff: 0.9 s⁻¹

## TolA224-344 (P. aeruginosa, lacking C-terminal α-helix)
[6]
  Kd: 86 µM

## E. coli TolA C-terminal domain
[7]
  Kd: 42 µM

## ADPLVISSGNDRA-NH2 [TolB22-34]
[8]
  TolA peaks perturbed by TolB peptide binding: > 80%

## N#CC(C#N)=NNc1cccc(Cl)c1 [CCCP]
[2]; CCCP 0.1 mM
  effect on FRAP recovery: measurable effect

## TolB (from UniProt P0A855)
[9]
  Kd: 0.03 µM
[10]
  Kd: 40 µM

B1: P. aeruginosa TolB^22–34 peptide (the N-terminus of secreted TolB; the TolA box) (peptide)
peptide: ADPLVISSGNDRA-NH2
[11]
  Kd: 220 µM

B2: P. aeruginosa TolB^22–34 fluorescein isothiocyanate (FITC) (peptide)
peptide: ADPLVISSGNDRAK(FITC)
[12]
  Kd: 250 µM
